Experiments:
Assay type in all cases: physicochemical
[1] = Lipid nanoparticle size and polydispersity by dynamic light scattering (Malvern Zetasizer Nano ZS); conditions: LNP of cationic lipid/DSPC/cholesterol/PEG-lipid 50:10:38.5:1.5 with mRNA
Procedure: (§1) Briefly, a cationic lipid provided herein, DSPC, cholesterol, and PEG-lipid were solubilized in ethanol at a molar ratio of 50:10:38.5:1.5, and mRNA were diluted in 10 to 50 mM citrate buffer, pH=4. The LNPs were prepared at a total lipid to mRNA weight ratio of approximately 10:1 to 30:1 by mixing the ethanolic lipid solution with the aqueous mRNA solution at a volume ratio of 1:3 using a microfluidic apparatus, total flow rate ranging from 9-30 mL/min. Ethanol were thereby removed and replaced by DPBS using dialysis. Finally, the lipid nanoparticles were filtered through a 0.2 μm sterile filter.
(§2) Lipid nanoparticle size were determined by dynamic light scattering using a Malvern Zetasizer Nano ZS (Malvern UK) using a 173° backscatter detection mode. The encapsulation efficiency of lipid nanoparticles were determined using a Quant-it Ribogreen RNA quantification assay kit (Thermo Fisher Scientific, UK) according to the manufacturer's instructions.

[2] = Encapsulation efficiency of lipid nanoparticles, Quant-it Ribogreen RNA quantification assay; conditions: LNP with mRNA
Procedure: as §1, §2

[3] = Apparent pKa of LNP formulations, TNS fluorescence assay; conditions: LNP cationic lipid/DSPC/cholesterol/DMG-PEG 50/10/38.5/1.5 mol %, pH 3 to 9
Procedure: As reported in literature, the apparent pKa of LNP formulations correlates with the delivery efficiency of LNPs for nucleic acids in vivo. The apparent pKa of each formulation was determined using an assay based on fluorescence of 2-(p-toluidino)-6-napthalene sulfonic acid (TNS). LNP formulations comprising of cationic lipid/DSPC/cholesterol/DMG-PEG (50/10/38.5/1.5 mol %) in PBS were prepared as described above. TNS was prepared as a 300 uM stock solution in distilled water. LNP formulations were diluted to 0.1 mg/ml total lipid in 3 mL of buffered solutions containing 50 mM sodium citrate, 50 mM sodium phosphate, 50 mM sodium borate, and 30 mM sodium chloride where the pH ranged from 3 to 9. An aliquot of the TNS solution was added to give a final concentration of 0.1 mg/ml and following vortex mixing fluorescence intensity was measured at room temperature in a Molecular Devices Spectramax iD3 spectrometer using excitation and mission wavelengths of 325 nm and 435 nm. A sigmoidal best fit analysis was applied to the fluorescence data and the pKa value was measured as the pH giving rise to half-maximal fluorescent intensity.

Structure (SMILES) | polydispersity [1] | size (nm) [1] | Encapsulation Efficiency [2] | Apparant Pka [3]
CCCCCCCCCCCCOCC(CN(CCCCCC(=O)OCC(CCCCCC)CCCCCCCC)CCN(CCO)C1CCCCC1)OC(C)=O (stereo not shown) [Compound 21] | 0.221 | 74.88 nm | 85.5% | 5.49
CCCCCCCCCCCCOCC(CN(CCCCCC(=O)OCC(CCCCCC)CCCCCCCC)CCN(CCO)C1CCCC1)OCCCCCCCC (stereo not shown) [Compound 35] | 0.1 | 56.71 nm | 96.80% | 5.940
CCCCCCCCC(CCCCCC)CC(=O)OCC(CN(CCO)C1CCC1)OC(=O)CC(CCCCCC)CCCCCCCC (stereo not shown) [Compound 32] | 0.232 | 59.1 nm | 44.6% | 3.519
CCCCCCCCCCCCOCC(CN(CCCCCC(=O)OCC(CCCCCC)CCCCCCCC)CCN(CCO)C1CCC1)OCCCCCCCC (stereo not shown) [Compound 33] | 0.06 | 63.54 nm | 94.30% | 5.943
CCCCCCCCCCCCCCOC(COCCCCCCCCCCCC)CN(CCCCCC(=O)OCCCCCCCCCC)CCN(CCO)C1CCC1 (stereo not shown) [Compound 47] | 0.082 | 82.89 nm | 91.3% | 6.120
CCCCCCCCCCCCOCC(CN(CCCCCC(=O)OCC(CCCCCC)CCCCCCCC)CCN(CCO)C1CCCCCC1)OCCCCCCCCCCCC (stereo not shown) [Compound 31] | 0.127 | 51.35 nm | 80.1% | 5.704
CCCCCCCCCCCCOCC(O)CN(CCCCCC(=O)OCC(CCCCCC)CCCCCCCC)CCN(C)C (stereo not shown) [Compound 7] | 0.063 | 85.46 nm | 96.7% | 8.7

Now from value to compound:

polydispersity [1] | size (nm) [1] | Encapsulation Efficiency [2] | Apparant Pka [3] | Structure (SMILES)
0.055 | 70.83 nm | 96.2% | 7.219 | CCCCCCCCC(CCCCCCCC)CNC(=O)CCOC(COCCC(=O)OCC(CCCCCCCC)CCCCCCCC)CN(C)CCN(CCO)C1CCC1 (stereo not shown) [Compound 61]
0.01 | 77.16 nm | 93.58% | 6.997 | CCCCCCCCCCCCCCCC(=O)OCC(CCCCN(CCO)C1CCC1)COC(=O)CC(CCCCCC)CCCCCCCC (stereo not shown) [Compound 98]
0.084 | 55.01 nm | 89.42% | 6.22 | CCCCCCCCC(CCCCCC)CC(=O)OCC(CCCCN(CCO)C1CCCCC1)COC(=O)CC(CCCCCC)CCCCCCCC (stereo not shown) [Compound 68]
0.04 | 77.15 nm | 93.93% | 6.793 | CCCCCCCCCCC(=O)OCC(CCCCN(CC=C(C)C)CCO)COC(=O)CC(CCCCCC)CCCCCCCC (stereo not shown) [Compound 94]
0.044 | 72.85 nm | 96.6% | 6.749 | CCCCCCCCC(CCCCCCCC)CC(=O)OCC(CCCCN(C)CCN(CCO)C1CCC1)COC(=O)CC(CCCCCCCC)CCCCCCCC [Compound 66]
0.066 | 74.14 nm | 92.17% | 6.438 | CCCCCCCCCCC(=O)OCC(CCCCN(CCO)C1CCCCC1)COC(=O)CC(CCCCCC)CCCCCCCC (stereo not shown) [Compound 85]
0.011 | 74 nm | 92.59% | 6.204 | CCCCCCCCC(CCCCCC)CC(=O)OCC(CCCCN(CCN(CCO)CCCC)C1CCC1)COC(=O)CC(CCCCCC)CCCCCCCC (stereo not shown) [Compound 109]
0.077 | 76.45 nm | 94.62% | 6.727 | CCCCCCCCC(CCCCCCCC)COC(=O)CCOCC(CN(C)CCN(CCO)C1CCCC1)OCCC(=O)OCC(CCCCCCCC)CCCCCCCC (stereo not shown) [Compound 71]
0.027 | 98.95 nm | 92.20% | 6.063 | CCCCCCCCC(CCCCCC)CC(=O)OCC(CCCCN(CCN(CCC)CCO)C1CCC1)COC(=O)CC(CCCCCC)CCCCCCCC (stereo not shown) [Compound 80]

Source: patent publication US11964052B2, “Lipid compounds and lipid nanoparticle compositions” (SUZHOU ABOGEN BIOSCIENCES CO., LTD., priority 2021, dated 2024)
